As a reminder, the IC50 is the concentration that inhibits the measured activity by half.

The target in one assay is T1, p38-α (Homo sapiens, UniProt Q16539).
T1 construct: purchased Millipore
Kind of assay: p38 kinase assay, p38-α with peptide substrate (Caliper LabChip). The settings on record: read-out: IC50 p38a*peptide. Format: biochemical. As to the method:
Alternatively, p38 kinase assays were performed in a reaction volume of 70 µL in a 384-well plate, at 30° for […] under the following conditions: 50 mM Hepes, pH 7.4, 10 mM MgCl2, 1 mg/ml FA Free BSA, 1 mM DTT, 10 μM ATP, 10 μM p38 peptide [Caliper Life Sciences FL-Peptide 8 (5-FAM-IPTSPITTTYFFEKKK-COOH)] and 5.7 nM p38-α (Millipore), or 14.3 nM unactivated MAPKAP kinase-2, 0.18 nM p38-α (Millipore) and 2 uM RSK peptide [Caliper Life Sciences FL-Peptide 11 (5-FAM-KKLNRTLSVA-COOH)]. Serial dilutions of compounds were added to each reaction in 700 nL DMSO. 700 nL of DMSO was added to the control wells of the reaction plate as the no inhibitor control for each inhibitor titration. The reaction was terminated by the addition of 15 μL of a 100 mM EDTA. Product formation was analyzed using the Caliper LabChip 3000. The Separation buffer contained 100 mM HEPES pH 7.5, 0.015% Brij-35, 2.5% Coating Reagent #3 (Caliper Life Sciences) and 10 mM EDTA. Calculation of the substrate product ratios are performed using the HTS Well Analyzer software provided by Caliper Life Sciences and the percent inhibition at each compound concentration is determined.

The test system of a further assay is hWB. Kind of assay: IC50 hWB (TNF-α release assay). Format: cell-based. The settings on record: Homo sapiens.

T1 sequence (Q16539 whole entry): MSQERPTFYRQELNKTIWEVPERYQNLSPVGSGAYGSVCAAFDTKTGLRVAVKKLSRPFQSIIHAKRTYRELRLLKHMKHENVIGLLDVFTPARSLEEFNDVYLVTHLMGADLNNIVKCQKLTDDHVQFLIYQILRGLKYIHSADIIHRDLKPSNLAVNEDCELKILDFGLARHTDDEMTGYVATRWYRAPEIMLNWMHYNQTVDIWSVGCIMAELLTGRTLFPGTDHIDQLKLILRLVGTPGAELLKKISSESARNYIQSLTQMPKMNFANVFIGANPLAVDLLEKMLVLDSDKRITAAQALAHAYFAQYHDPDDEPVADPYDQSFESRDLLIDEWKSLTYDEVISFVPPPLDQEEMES

On to `O=C(NCc1nnc(-c2cccnc2)s1)c1cc(C(=O)c2c(F)cc(F)cc2F)c[nH]1` [Example 13, N-[(5-pyridin-3-yl-1,3,4-thiadiazol-2-yl)methyl]-4-(2,4,6-trifluorobenzoyl)-1H-pyrrole-2-carboxamide], for which the IC50 at p38-α was found to be 0.04 µM; in the assay on hWB, 0.747 µM.

Consider `O=C(NCc1nnc(-c2ccc[nH]2)s1)c1cc(C(=O)c2c(F)cc(F)cc2F)c[nH]1` [Example 14, N-{[5-(1H-pyrrol-2-yl)-1,3,4-thiadiazol-2-yl]methyl}-4-(2,4,6-trifluorobenzoyl)-1H-pyrrole-2-carboxamide], for which the IC50 on p38-α turned out to be 0.121 µM; in the assay with hWB, 1.27 µM.

Regarding `O=C(NCc1nnc(-c2ccco2)s1)c1cc(C(=O)c2c(F)cc(F)cc2F)c[nH]1` [Example 15, N-{[5-(2-furyl)-1,3,4-thiadiazol-2-yl]methyl}-4-(2,4,6-trifluorobenzoyl)-1H-pyrrole-2-carboxamide], the half-maximal inhibitory concentration (IC50) was found to be 0.098 µM at p38-α and 0.614 µM in the assay on hWB.

With `COc1ccc(-c2nnc(CNC(=O)c3cc(C(=O)c4c(F)cc(F)cc4F)c[nH]3)s2)cn1` [Example 17, N-{[5-(6-methoxypyridin-3-yl)-1,3,4-thiadiazol-2-yl]methyl}-4-(2,4,6-trifluorobenzoyl)-1H-pyrrole-2-carboxamide], the results for the IC50 at p38-α and in the assay on hWB were 0.078 µM and 2.82 µM, respectively.

Turning to `Cc1cc(-c2nnc(CNC(=O)c3cc(C(=O)c4c(F)cc(F)cc4F)c[nH]3)s2)[nH]n1` [Example 20, N-{[5-(3-methyl-1H-pyrazol-5-yl)-1,3,4-thiadiazol-2-yl]methyl}-4-(2,4,6-trifluorobenzoyl)-1H-pyrrole-2-carboxamide], the IC50 stood at 0.022 µM at p38-α and 0.262 µM in the assay on hWB.

As for `O=C(NCc1nnc(-c2cnccn2)s1)c1cc(C(=O)c2c(F)cc(F)cc2F)c[nH]1` [Example 21, N-[(5-pyrazin-2-yl-1,3,4-thiadiazol-2-yl)methyl]-4-(2,4,6-trifluorobenzoyl)-1H-pyrrole-2-carboxamide], the values for the IC50 on p38-α and with hWB were 0.078 µM and 0.815 µM, respectively.

As to `CC(C)c1cc(-c2nnc(CNC(=O)c3cc(C(=O)c4c(F)cc(F)cc4F)c[nH]3)s2)[nH]n1` [Example 25, N-{[5-(3-isopropyl-1H-pyrazol-5-yl)-1,3,4-thiadiazol-2-yl]methyl}-4-(2,4,6-trifluorobenzoyl)-1H-pyrrole-2-carboxamide], the IC50 worked out at 0.01 µM on p38-α and 0.09 µM in the assay on hWB.

As to `CC(C)Cc1cc(-c2nnc(CNC(=O)c3cc(C(=O)c4c(F)cc(F)cc4F)c[nH]3)s2)[nH]n1` [Example 26, N-{[5-(3-isobutyl-1H-pyrazol-5-yl)-1,3,4-thiadiazol-2-yl]methyl}-4-(2,4,6-trifluorobenzoyl)-1H-pyrrole-2-carboxamide], the results for the IC50 at p38-α and in the assay with hWB were 0.024 µM and 0.163 µM, respectively.

Consider `O=C(NCc1nnc(-c2n[nH]c3ccccc23)s1)c1cc(C(=O)c2c(F)cc(F)cc2F)c[nH]1` [Example 28, N-{[5-(1H-indazol-3-yl)-1,3,4-thiadiazol-2-yl]methyl}-4-(2,4,6-trifluorobenzoyl)-1H-pyrrole-2-carboxamide], for which the IC50 at p38-α amounted to 0.069 µM; in the assay with hWB, 0.36 µM.

On to `O=C(NCc1nnc(-c2cc3ncccn3n2)s1)c1cc(C(=O)c2c(F)cc(F)cc2F)c[nH]1` [Example 29], for which the IC50 at p38-α stood at 0.017 µM; in the assay on hWB it was 0.885 µM.

With `O=C(NCc1nnc(-c2ccn[nH]2)s1)c1cc(C(=O)c2c(F)cc(F)cc2F)c[nH]1` [Example 32, N-{[5-(1H-pyrazol-5-yl)-1,3,4-thiadiazol-2-yl]methyl}-4-(2,4,6-trifluorobenzoyl)-1H-pyrrole-2-carboxamide], the values for the IC50 at p38-α and in the assay on hWB were 0.043 µM and 0.084 µM, respectively.

Regarding `O=C(NCc1nnc(-c2ccc[nH]c2=O)s1)c1cc(C(=O)c2c(F)cc(F)cc2F)c[nH]1` [Example 35, N-{[5-(2-oxo-1,2-dihydropyridin-3-yl)-1,3,4-thiadiazol-2-yl]methyl}-4-(2,4,6-trifluorobenzoyl)-1H-pyrrole-2-carboxamide], the IC50 on p38-α worked out at 0.0375 µM; with hWB it was 0.168 µM.

With `O=C(NCc1nnc(-c2ccc[nH]c2=O)s1)c1cc(Cc2c(F)cc(F)cc2F)c[nH]1` [Example 43, N-{[5-(2-oxo-1,2-dihydropyridin-3-yl)-1,3,4-thiadiazol-2-yl]methyl}-4-(2,4,6-trifluorobenzyl)-1H-pyrrole-2-carboxamide], the IC50 worked out at 0.259 µM at p38-α and 1.88 µM in the assay on hWB.

Turning to `O=C(NCc1nnc(-c2ccn[nH]2)s1)c1cc(Cc2c(F)cc(F)cc2F)c[nH]1` [Example 45, N-{[5-(1H-pyrazol-5-yl)-1,3,4-thiadiazol-2-yl]methyl}-4-(2,4,6-trifluorobenzyl)-1H-pyrrole-2-carboxamide], the figures for the half-inhibitory concentration (IC50) on p38-α and with hWB were 0.354 µM and 1.36 µM, respectively.

As for `Cc1cc(-c2nnc(CNC(=O)c3cc(Cc4c(F)cc(F)cc4F)c[nH]3)s2)[nH]n1` [Example 46, N-{[5-(3-methyl-1H-pyrazol-5-yl)-1,3,4-thiadiazol-2-yl]methyl}-4-(2,4,6-trifluorobenzyl)-1H-pyrrole-2-carboxamide], the values for the IC50 on p38-α and in the assay on hWB were 0.243 µM and 3.27 µM, respectively.

The values above are taken from patent US8513289B2, “P38 kinase inhibiting agents” (Merck Sharp & Dohme Corp., priority 2009, dated 2013).
